Experimental data as given in US11266642B2, “Small molecule inhibitors of HLA-DR3 binding for treating autoimmune thyroiditis” (ICAHN SCHOOL OF MEDICINE AT MOUNT SINAI, priority 2015, dated 2022).
Read-outs that look alike come from different tables or passages of the source.

How the values were obtained:
Interferon (IFN gamma) = assay: Cytokine production by immunized mice splenocytes (Milliplex/Luminex); format: cell-based; details: Mus musculus, Splenocyte, 1 μM compound, 48 hours
Protocol: Immunized mice splenocytes were incubated with 1 μM compound Ia together with human thryroglobulin (40 μg/mL) or Tg.2098 (20 μg/mL) to assess the inhibition of cytokines production by compound Ia. […] Milliplex mouse cytokines/chemokine magnetic panel (Catalog no. MCYTOMAG-70K, EMD Millipore Corporation, Billerica, Mass.) was used to assay the cytokines. Splenocytes were plated at 2×10^6 cells per well in 500 uL of medium (RPMI/10% FBS). Supernatants were collected 48 hours after stimulation with hTg or peptides and stored at −80° C. until the assay was performed. To begin the assay, the 96-well plate supplied in the kit was washed with the wash buffer supplied and the plate was shaken for 10 min at room temperature. Standards and quality controls were added, followed by the samples. The pre-mixed beads (IFN gamma, IL-2, IL-4, IL-10) were sonicated and vortexed, and then added to the wells. After shaking the plate overnight at 4° C., the plate was washed twice with wash buffer. Detection antibodies were added for 1 h at room temperature, and Streptavidin-Phycoerythrin was added for 30 min at room temperature. The plate was washed twice and sheath fluid was added to resuspend the beads for 5 min before reading in Luminex 200 with xPONENT software (Luminex, Austin, Tex.) […]

HLA-DR2 = assay: MBP87-99 binding to DR2 expressing cells, flow cytometry (specificity control); format: cell-based, human; details: biotinylated MBP87-99, 24 hours
[1] = system: T-cell proliferative responses to hTg or Tg.2098; assay: In vivo PO administration in hTg-immunized NOD-DR3 mice (EAT), T-cell proliferation CFSE assay; design: species or system mouse; details: PO gavage 250 μg on days -2, -1, 5, 6, sacrifice day 21
Text: Mice transgenic for DRB1*0301 were originally generated by G. J Hämmerling and co-workers as previously described [Strauss et al. Immunogenetics 40, 104-108 (1994)]. Briefly, the DR3 (DRA1*0101/DRB1*0301) transgenes were inserted into (C57BL/6×DBA/2) F1 embryos and the progeny were back-crossed to B10.Q mice. The DR3 mice were crossed with I-Aβ knockouts (C57BL/6×129) to obtain mice lacking murine MHC class II and expressing human DR3. The transgenic mouse line was maintained by intercrossing. The background non-MHC genes in the DR3 transgenic line was 50% C57BL/10 genes and 50% contribution from CBA, C57BL/6, and 129 genes. These mice were then back-crossed into NOD background to produce the NOD-DR3 mice [Flynn et al. J Autoimmun, 17, 7-15 (2001)]. The transgene was confirmed to be HLA-DRβ1-Arg74 positive. Mice were bred in a pathogen-free facility (Icahn School of Medicine at Mount Sinai, New York, N.Y.), and expression of HLA-DR3 was tested by PCR using DR3-specific primers: forward primer 5′ CGCTTCGACAGCGAC 3′ (SEQ ID NO:4) and reverse primer 5′ GACAAATCCACACTCCAC 3′ (SEQ ID NO:5). […]
Three female NOD-DR3 mice (6 to 10 weeks old) were fed with 250 μg of Compound Ia PO using gavage on day (−2) and day (−1), followed by SQ immunization of hTg mixed with CFA on day 0. […] Stimulation index was calculated as before.

## COc1ccc2cc1Oc1ccc(cc1)C[C@H]1c3c(cc4c(c3Oc3cc5c(cc3OC)CCN(C)[C@@H]5C2)OCO4)CCN1C [Compound Ia, cepharanthine]
Interferon (IFN gamma); Tg.2098 20 μg/mL, p<0.0001, read-out: Interferon inhibition, Tg.2098 stimulation
  inhibition at 1 µM: 48.8%
Interferon (IFN gamma); hTg 40 μg/mL, p=0.002, read-out: Interferon inhibition, hTg stimulation
  inhibition at 1 µM: 38.7%
HLA-DR2
  block of MBP87-99 binding to DR2: did not block
[1]; vehicle 1.8 ± 0.2, p=0.0285
  Stimulation index, T-cell stimulation in response to hTg: 1.0 ± 0.2
[1]; vehicle 1.9 ± 0.3, p=0.0147
  Stimulation index, T-cell stimulation in response to Tg.2098: 0.9 ± 0.1
